{"source": "patent US11175282B2", "about": "“Method for predicting and monitoring clinical response to immunomodulatory therapy” (BIOHOPE Scientific Solutions for Human Health S.L., priority 2017, dated 2021)", "key": {"[1]": {"conditions": "general solubility profile, no test described; cited from earlier work"}, "Human activated PBMC": {"test_system": "Human activated PBMC", "assay": "Disc diffusion assay in semisolid media (agarose 0.5% / collagen 0.3% hydrogels), 6 well plates, resazurin read-out", "type": "cell-based", "conditions": "different disc loads, FIG. 12", "method": "PBMC T-Cells were activated though incubation with Dynabeads Human T-activator CD3/CD28 agonistic antibodies (Thermo Fisher, cat #111.32D) using a ratio 1:2 (dynabeads:PBMC) in a cell culture bottle. PBMC in the absent of dynabeads were also cultured as negative control of stimulation.\nPaper discs of 6 mm diameter discs were used as immunosuppressant delivery units. Discs were obtained from manual drill of Whatman™, 3 mm CHR chromatography paper sheet or using ready to use commercial paper disc (DDbiolab). Discs were sterilized by autoclave. Immunosupressant drugs (Sigma Aldrich) was dissolved in pure ethanol (Sigma Aldrich) at 20 mg/ml and stored as stock solution at −20° C. till use. […]\nResazurin (blue) transition to resofurin (pink) was monitored with the naked eye or checked after overnight incubation depending on assay design. […] Results were collected through images acquisition with visible light (Sanyo camera S1070 and E1075), ultraviolet light (UVltec Geldoc Gel Light Imaging System) and fluorescence microplate multyreader (PHERAstar® FSX Multimode Microplate Reader from BMG LABTECH or Spark® 10M Tecan.). Inhibitory gradients halos or fronts induced by discs loaded with immunosuppressants were quantified with ImageJ software in a semi-automated process or Spark control v1.2.25 software. […]"}, "[2]": {"test_system": "renal transplanted patient PBMCs", "assay": "Immunobiogram: disc diffusion gradient in collagen-methylcellulose hydrogel in 12 channelled well plates, clinical study", "type": "cell-based, human", "conditions": "patient 211; compared with tacrolimus and prednisone curves; FIG. 31", "method": "A multicenter study was conducted with a cohort of 70 renal transplant recipient patients, also 10 healthy volunteers were included for comparison purposes. The inclusion criteria consisted in men and women aged over 18 years with kidney transplant performed at least 1 year prior to inclusion. Patients present different defined and registered immunological risk profiled when included. Transplant patient clinical history includes complete recording of previous and updated immunological relevant data at the inclusion time.\nSample collection for the immunobiogram implementation consisted in two sodium heparin Vacutainer® tubes. Human PBMCs extraction from blood sample was performed using density gradient centrifugation (760 G during 15-20 minutes at RT) in adequate hydrophilic isosmotic polysaccharide solutions with a density of 1.077 g/ml (Pancoll, PAN BIOTECH GmbH or Ficoll, GE Healthcare). Cells were extracted with pipette from the gradient interphase and then washed in HBSS w/o Ca, Mg and Phenol red (Lonza), and resuspended in X-VIVO 15 (Lonza) medium. Obtained cells were frozen in cryovials with serum free medium (Profreeze-CDM, Lonza) DMSO (Sigma Aldrich) 7.5% and storage in liquid nitrogen until use. […] After the supernatant was discarded, cells were re-suspended in X-VIVO medium for further count and viability quantification. […]"}, "stimulated human PBMCs": {"test_system": "stimulated human PBMCs", "assay": "Liquid media serial dilution assay in standard 96 well microplate, resazurin read-out", "type": "cell-based", "method": "Human PBMC were extracted for Buffy coat bags from blood bank volunteer donation using density gradient centrifugation in adequate hydrophilic isosmotic polysaccharide solutions with a density of 1.077 g/ml (Pancoll, PAN BIOTECH GmbH or Ficoll, GE Healthcare) at 760 G during 20 minutes at RT. Cells were extracted with pipette from the gradient interphase and then washed in HBSS w/o Ca, Mg and Phenol red (Lonza), and resuspended in X-VIVO 15 (Lonza) medium. Obtained cells were frozen in cryovials with serum free medium (Profreeze-CDM, Lonza) DMSO (Sigma Aldrich) 7.5% and storage until use in liquid nitrogen.\nA few days later, removed vials from liquid nitrogen were immediately thawed in a 37° C. water bath for 2 minutes. […] After supernatant discard, cells were re-suspended in X-VIVO medium for further count and viability quantification.\nAfter thawing PBMCs viability was quantified by trypan blue and Neubauer chamber. […]\nAfter 10-12 hours of incubation with presto blue, 100 ul of each well were transferred to a 96 well ELISA plate, and then absorbance at 570 and 620 nm wavelength was quantified in a robotic absorbance microplate reader (Tekan, Infinite F50). Final values were obtained as result of absorbance at 570 nm minus absorbance at 620 nm, following instructions from presto blue manufacturer (Thermo Fisher). […]"}}}
{"smiles": "COc1c(C)c2c(c(O)c1C/C=C(\\C)CCC(=O)O)C(=O)OC2", "note": "[Mycophenolic acid, Mycophenolic Acid]", "values": [{"measurement": "aqueous solubility", "setting": "[1]", "value": "good aqueous solubility"}, {"measurement": "inhibitory halos over activated human PBMC", "setting": "Human activated PBMC", "value": "Dose dependant inhibitory halos"}]}
{"smiles": "COc1c(C)c2c(c(O)c1C/C=C(\\C)CCC(=O)OCCN1CCOCC1)C(=O)OC2", "note": "[MMF, micofenolate]", "values": [{"measurement": "Immunobiogram response curve", "setting": "[2]", "value": "less responsive"}]}
{"smiles": "CO[C@H]1C[C@@H]2CC[C@@H](C)[C@@](O)(O2)C(=O)C(=O)N2CCCC[C@H]2C(=O)O[C@H]([C@H](C)C[C@@H]2CC[C@@H](OCCO)[C@H](OC)C2)CC(=O)[C@H](C)/C=C(\\C)[C@@H](O)[C@@H](OC)C(=O)[C@H](C)C[C@H](C)/C=C/C=C/C=C/1C", "note": "[Everolimus]", "values": [{"measurement": "recovery of PBMC proliferative capacity versus positive control", "setting": "stimulated human PBMCs; 96 standard wells microplate serial dilutions, all concentration tested, even femtomolar, FIGS. 14 and 15", "value": "did not recover proliferative capacity comparable with positive control level"}, {"measurement": "inhibitory effect over stimulated human PBMCs", "setting": "stimulated human PBMCs; standard wells, all the concentrations tested (even at femtomolar levels)", "value": "at least some inhibitory level effect"}, {"measurement": "inhibitory halos over activated human PBMC", "setting": "Human activated PBMC", "value": "Dose dependant inhibitory halos"}]}
